Active and inactive are the calls of the source. No cut-off for these calls is given here.
Assays:
Mitochondria = assay: Inhibition of mitochondrial dysfunction in 40% FBS-induced steatosis human HepG2 cells model assessed as mitochondria with less swelling and organized mitochondrial cristae at 5 uM incubated for 24 hrs by transmission electron microscopy; assay type: functional
Rattus norvegicus [1] = assay: Hepatoprotective activity against high fat diet-fed NAFLD Sprague-Dawley rat model assessed as decrease in serum total cholesterol content administered intragastrically via gavage for 4 weeks; assay type: functional, organism-based; details: dose 12.3-61.4 mg/kg, route ig
HepG2 [2] = assay: Induction of mitochondrial biogenesis in human HepG2 cells assessed as mitochondrial ND6 protein expression incubated for 24 hrs in presence of SIRT1 inhibitor, EX527 by western blot analysis; assay type: functional, cell-based
HepG2 [3] = assay: Inhibition of liver injury in 40% FBS-induced steatosis human HepG2 cells model assessed as decrease in GDH level at 0.2 to 5 uM incubated with compound for 24 hrs followed by replacement with steatosis inducing DMEM with 40% FBS medium; assay type: functional, cell-based; details: dose 0.2-5 µM
HepG2 [4] = assay: Recovery of mitochondrial biogenesis in 40% FBS-induced steatosis human HepG2 cells model assessed as increase in TFAM protein expression incubated for 24 hrs by western blot analysis; assay type: functional, cell-based; details: dose 0.2-5 µM
HepG2 [5] = assay: Induction of mitochondrial biogenesis in human HepG2 cells assessed as mitochondrial COX1 protein expression incubated for 24 hrs in presence of SIRT1 inhibitor, EX527 by western blot analysis; assay type: functional, cell-based
HepG2 [6] = assay: Inhibition of lipid toxicity in 40% FBS-induced steatosis human HepG2 cells model assessed as decrease in triglyceride content at 0.2 to 5 uM incubated in steatosis inducing DMEM with 40% FBS medium for 24 hrs followed by compound treatment; assay type: functional, cell-based; details: dose 0.2-5 µM
Rattus norvegicus [7] = assay: Hepatoprotective activity against high fat diet-fed NAFLD Sprague-Dawley rat model assessed as decrease in serum triglyceride content administered intragastrically via gavage for 4 weeks; assay type: functional, organism-based; details: dose 12.3-61.4 mg/kg, route ig
HepG2 [8] = assay: Recovery of mitochondrial biogenesis in 40% FBS-induced steatosis human HepG2 cells model assessed as increase in SIRT1 mRNA expression incubated for 24 hrs by qRT-PCR analysis; assay type: functional, cell-based; details: dose 0.2-5 µM
HepG2 [9] = assay: Recovery of energy production in 40% FBS-induced steatosis human HepG2 cells model assessed as upregulation of mitochondrial ATP production incubated with compound for 24 hrs followed by replacement with steatosis inducing DMEM with 40% FBS medium by luciferase based assay; assay type: functional, cell-based; details: Mitochondria, dose 0.2-5 µM
HepG2 [10] = assay: Inhibition of liver injury in 40% FBS-induced steatosis human HepG2 cells model assessed as decrease in ALT level at 0.2 to 5 uM incubated in steatosis inducing DMEM with 40% FBS medium for 24 hrs followed by compound treatment; assay type: functional, cell-based; details: dose 0.2-5 µM
HepG2 [11] = assay: Recovery of mitochondrial biogenesis in 40% FBS-induced steatosis human HepG2 cells model assessed as increase in NRF1 mRNA expression incubated for 24 hrs by qRT-PCR analysis; assay type: functional, cell-based; details: dose 0.2-5 µM
HepG2 [12] = assay: Inhibition of liver injury in human HepG2 cells assessed as increase in liver protection index by measuring increase in ratio of GSH to GSSG at 0.2 to 5 uM incubated with compound for 24 hrs followed by replacement with steatosis inducing DMEM with 40% FBS medium; assay type: functional, cell-based; details: dose 0.2-5 µM
Rattus norvegicus [13] = assay: Hepatoprotective activity against high fat diet-fed NAFLD Sprague-Dawley rat model assessed as increase in serum GSH level administered intragastrically via gavage for 4 weeks; assay type: functional, organism-based; details: dose 12.3-61.4 mg/kg, route ig
[14] = target: T1, NAD-dependent protein deacetylase sirtuin-1 (Homo sapiens) (UniProt Q96EB6); assay: Binding affinity to SIRT1 in human HepG2 cells assessed as increase in protein abundance at 80 to 320 uM pretreated with compound for 30 mins followed by proteolysis for 15 mins by DARTS assay; assay type: cell-based; details: filed as activator, dose 80-320 µM, time 45.0 min
T1 sequence (whole entry): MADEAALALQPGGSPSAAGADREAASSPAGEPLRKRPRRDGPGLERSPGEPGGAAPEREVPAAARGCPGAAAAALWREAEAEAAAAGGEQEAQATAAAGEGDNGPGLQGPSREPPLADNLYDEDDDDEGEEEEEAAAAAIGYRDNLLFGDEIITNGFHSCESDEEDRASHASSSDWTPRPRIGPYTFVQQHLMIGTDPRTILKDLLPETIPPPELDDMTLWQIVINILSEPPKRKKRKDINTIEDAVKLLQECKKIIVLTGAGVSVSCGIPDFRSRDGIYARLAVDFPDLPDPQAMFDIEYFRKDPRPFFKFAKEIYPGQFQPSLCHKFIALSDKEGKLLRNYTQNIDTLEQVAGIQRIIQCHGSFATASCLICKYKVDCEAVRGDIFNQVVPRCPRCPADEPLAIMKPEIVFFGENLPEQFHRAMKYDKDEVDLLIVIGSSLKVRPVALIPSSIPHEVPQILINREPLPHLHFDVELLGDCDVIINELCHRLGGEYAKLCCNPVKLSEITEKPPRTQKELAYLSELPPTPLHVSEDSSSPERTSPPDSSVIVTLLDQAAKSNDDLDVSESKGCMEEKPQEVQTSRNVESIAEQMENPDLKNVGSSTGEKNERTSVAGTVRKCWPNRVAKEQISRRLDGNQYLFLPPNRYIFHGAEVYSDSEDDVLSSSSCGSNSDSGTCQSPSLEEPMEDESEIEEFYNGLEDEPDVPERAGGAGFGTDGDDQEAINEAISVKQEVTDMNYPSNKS

HepG2 [15] = assay: Inhibition of oxidative stress in 40% FBS-induced steatosis human HepG2 cells model assessed as reduction in mitochondrial ROS production incubated with compound for 24 hrs followed by replacement with steatosis inducing DMEM with 40% FBS medium by MitoSOX Red dye based fluorescence microscopy; assay type: functional, cell-based; details: Mitochondria, dose 0.2-5 µM
HepG2 [16] = assay: Inhibition of oxidative stress in 40% FBS-induced steatosis human HepG2 cells model assessed as reduction in mitochondrial ROS production incubated in steatosis inducing DMEM with 40% FBS medium for 24 hrs followed by compound treatment by MitoSOX Red dye based fluorescence microscopy; assay type: functional, cell-based; details: Mitochondria, dose 0.2-5 µM
Rattus norvegicus [17] = assay: Hepatoprotective activity against high fat diet-fed NAFLD Sprague-Dawley rat model assessed as decrease in serum GDH level administered intragastrically via gavage for 4 weeks; assay type: functional, organism-based; details: dose 12.3-61.4 mg/kg, route ig
HepG2 [18] = assay: Inhibition of liver injury in 40% FBS-induced steatosis human HepG2 cells model assessed as decrease in ALT level at 0.2 to 5 uM incubated with compound for 24 hrs followed by replacement with steatosis inducing DMEM with 40% FBS medium; assay type: functional, cell-based; details: dose 0.2-5 µM
HepG2 [19] = assay: Recovery of mitochondrial biogenesis in 40% FBS-induced steatosis human HepG2 cells model assessed as increase in PGC1alpha protein expression incubated for 24 hrs by western blot analysis; assay type: functional, cell-based; details: dose 0.2-5 µM
HepG2 [20] = assay: Induction of mitochondrial biogenesis in human HepG2 cells assessed as mitochondrial COX1 mRNA expression incubated for 24 hrs in presence of SIRT1 inhibitor, EX527 by qRT-PCR analysis; assay type: functional, cell-based
HepG2 [21] = assay: Inhibition of mitochondrial membrane potential dissipation in 40% FBS-induced steatosis human HepG2 cells model assessed as increase in mitochondrial membrane potential incubated in steatosis inducing DMEM with 40% FBS medium for 24 hrs followed by compound treatment by JC-1 staining based fluorescence microscopy; assay type: functional, cell-based; details: Mitochondria, dose 0.2-5 µM
EA.hy 926 = assay: Cytoprotective activity against H2O2-induced toxicity in human EA.hy 926 cells assessed as protective rate pretreated with compound for 4 hrs followed by incubation with H2O2 for 2 hrs by absorbance based analysis; assay type: functional, cell-based
Rattus norvegicus [22] = assay: Hepatoprotective activity against high fat diet-fed NAFLD Sprague-Dawley rat model assessed as decrease in liver index administered intragastrically via gavage for 4 weeks; assay type: functional, organism-based; details: dose 12.3-61.4 mg/kg, route ig

Q: CC(C)(C)c1ccc(C(=O)c2ccc(O)c(O)c2)cc1 was tested. Which inhibition (Mitochondria) did it give?
A: Active

Q: What about the Activity (Rattus norvegicus [1]) of the same compound?
A: Dose-Dependent Effect

Q: And the Activity (HepG2 [2])?
A: inactive

Q: And the inhibition (HepG2 [3])?
A: Active

Q: What about the Activity (HepG2 [4]) of the same compound?
A: Dose-Dependent Effect

Q: And the Activity (HepG2 [5])?
A: inactive

Q: And the inhibition (HepG2 [6])?
A: Active

Q: What about the Activity (Rattus norvegicus [7]) of the same compound?
A: Dose-Dependent Effect

Q: And the Activity (HepG2 [8])?
A: Dose-Dependent Effect

Q: And the Activity (HepG2 [9])?
A: Dose-Dependent Effect

Q: And the inhibition (HepG2 [10])?
A: Active

Q: What about the Activity (HepG2 [11]) of the same compound?
A: Dose-Dependent Effect

Q: And the inhibition (HepG2 [12])?
A: Active

Q: And the Activity (Rattus norvegicus [13])?
A: Active

Q: What about the Activity [14] of the same compound?
A: Active

Q: And the inhibition (HepG2 [15])?
A: Dose-Dependent Effect

Q: And the inhibition (HepG2 [16])?
A: Dose-Dependent Effect

Q: What about the Activity (Rattus norvegicus [17]) of the same compound?
A: Active

Q: And the inhibition (HepG2 [18])?
A: Active

Q: What about the Activity (HepG2 [19]) of the same compound?
A: Dose-Dependent Effect

Q: And the Activity (HepG2 [20])?
A: inactive

Q: What about the inhibition (HepG2 [21]) of the same compound?
A: Dose-Dependent Effect

Q: What about the EC50 (EA.hy 926) of the same compound?
A: 72.3 nM

Q: And the Activity (Rattus norvegicus [22])?
A: Dose-Dependent Effect

Source: ChEMBL document CHEMBL5537110, “SIRT1-dependent mitochondrial biogenesis supports therapeutic effects of 4-butyl-polyhydroxybenzophenone compounds against NAFLD” (Eur J Med Chem, 2023)
